Data on 17 compounds can be found in ChEMBL document CHEMBL3727360, “Tetrahydroisoquinolines as selective nadph oxidase 2 inhibitors” (2014).

Structures are written as SMILES. The source made the active and inactive calls. No cut-off for these calls is given here.

In data set [1] the target is Xanthine dehydrogenase/oxidase (Bos taurus, UniProt P80457). Nature of the data set: Inhibition of bovine xanthine-oxidase assessed as H2O2 production at 25 to 50 uM by amplex red dye based fluorescence assay. As to conditions: cattle.
Data set [2] in a line: Cytotoxicity against african green monkey COS7 cells at high concentration for 15 mins by fluorescence analysis. The following applies: chlorocebus aethiops, cos-7, 0.25 h. In kind it is cell-based.
In another data set the target is T1, NADPH oxidase 4 (Homo sapiens, UniProt Q9NPH5).
T1 sequence (Q9NPH5 whole entry): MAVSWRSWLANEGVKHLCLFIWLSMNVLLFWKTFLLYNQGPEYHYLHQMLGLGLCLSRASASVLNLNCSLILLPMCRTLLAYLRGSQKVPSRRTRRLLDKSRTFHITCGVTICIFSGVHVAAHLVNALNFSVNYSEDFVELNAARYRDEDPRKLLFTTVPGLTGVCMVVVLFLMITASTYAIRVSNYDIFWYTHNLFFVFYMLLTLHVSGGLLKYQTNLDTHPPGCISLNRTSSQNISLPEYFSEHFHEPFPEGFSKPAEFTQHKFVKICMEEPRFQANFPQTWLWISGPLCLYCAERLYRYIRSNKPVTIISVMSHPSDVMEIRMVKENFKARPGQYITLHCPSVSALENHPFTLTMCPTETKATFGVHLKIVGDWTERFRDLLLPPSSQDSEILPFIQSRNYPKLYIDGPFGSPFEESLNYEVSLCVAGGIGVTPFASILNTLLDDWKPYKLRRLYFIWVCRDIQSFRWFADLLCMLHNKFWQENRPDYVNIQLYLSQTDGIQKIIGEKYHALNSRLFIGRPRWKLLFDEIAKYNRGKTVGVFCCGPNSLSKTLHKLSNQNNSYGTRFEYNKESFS
Put plainly: Inhibition of human Nox4 expressed in COS7 cells assessed as inhibition of PMA-induced H2O2 production by amplex red dye based fluorescence assay. Type of data set: cell-based. As to conditions: cos-7.

The target in a further data set is T2, NADPH oxidase 1 (Homo sapiens, UniProt Q9Y5S8).
T2 sequence (Q9Y5S8 whole entry): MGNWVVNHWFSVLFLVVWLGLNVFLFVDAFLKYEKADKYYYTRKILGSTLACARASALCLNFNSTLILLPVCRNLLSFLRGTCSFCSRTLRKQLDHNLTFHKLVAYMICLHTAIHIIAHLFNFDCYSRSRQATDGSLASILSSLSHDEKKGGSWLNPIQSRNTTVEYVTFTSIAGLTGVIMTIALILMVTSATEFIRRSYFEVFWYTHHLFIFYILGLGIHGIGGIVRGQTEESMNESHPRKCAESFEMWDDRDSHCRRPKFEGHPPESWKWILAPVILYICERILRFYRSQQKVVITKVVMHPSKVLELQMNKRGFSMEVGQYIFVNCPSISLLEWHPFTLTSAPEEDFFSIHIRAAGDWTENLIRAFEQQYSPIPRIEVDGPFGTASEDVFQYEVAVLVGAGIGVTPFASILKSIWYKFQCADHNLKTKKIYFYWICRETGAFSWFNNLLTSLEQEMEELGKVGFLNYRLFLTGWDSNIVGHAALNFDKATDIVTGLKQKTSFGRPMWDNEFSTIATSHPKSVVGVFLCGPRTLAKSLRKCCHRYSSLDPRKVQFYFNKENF
Put plainly: Inhibition of human Nox1 expressed in COS7 cells co-transfected with human NOXO1/NOXA1 assessed as inhibition of PMA-induced superoxide generation by L-012 chemiluminescence analysis. The following applies: cos-7. Type of data set: cell-based.

Data set [3] has as its system HPAEC. Put plainly: Inhibition of high-glucose-stimulated superoxide production in HPAEC cells at 25 uM measured after 24 hrs. Type of data set: functional, cell-based. The following applies: Homo sapiens.
The test system of data set [4] is HPAEC. Nature of the data set: Inhibition of angiotensin-2-stimulated superoxide production in HPAEC cells at 25 uM measured after 24 hrs. The following applies: Homo sapiens. In kind it is functional, cell-based.
Data set [5] deals with T3, NADPH oxidase 2 (Homo sapiens) (UniProt P04839).
T3 sequence (whole entry): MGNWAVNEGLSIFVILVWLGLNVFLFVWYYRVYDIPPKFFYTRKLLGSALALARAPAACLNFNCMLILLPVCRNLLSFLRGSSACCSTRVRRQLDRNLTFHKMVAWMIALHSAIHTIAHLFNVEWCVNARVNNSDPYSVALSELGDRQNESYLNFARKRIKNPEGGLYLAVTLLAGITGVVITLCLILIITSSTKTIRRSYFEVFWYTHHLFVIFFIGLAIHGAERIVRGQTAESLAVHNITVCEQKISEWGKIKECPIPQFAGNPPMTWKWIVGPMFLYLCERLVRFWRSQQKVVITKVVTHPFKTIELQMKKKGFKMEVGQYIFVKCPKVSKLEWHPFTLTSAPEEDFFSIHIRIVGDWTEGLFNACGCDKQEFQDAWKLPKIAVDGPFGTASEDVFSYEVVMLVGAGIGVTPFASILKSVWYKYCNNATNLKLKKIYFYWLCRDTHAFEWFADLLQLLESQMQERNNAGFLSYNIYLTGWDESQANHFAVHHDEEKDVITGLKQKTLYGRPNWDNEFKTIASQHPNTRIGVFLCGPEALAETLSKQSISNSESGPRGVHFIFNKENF
Put plainly: Inhibition of human Nox2 expressed in COS7 cells co-transfected with human p22-phox,p47phox and p67-phox assessed as inhibition of PMA-induced ROS production at 10 uM. Type of data set: cell-based. As to conditions: COS-7.

For data set [6], the target named is T4, NADPH oxidase 1 (Homo sapiens) (UniProt Q9Y5S8).
T4 sequence (whole entry): T2 sequence (Q9Y5S8 whole entry)
Nature of the data set: Inhibition of human Nox1 expressed in COS7 cells co-transfected with human co-transfected with human NOXO1/NOXA1 assessed as inhibition of PMA-induced ROS production at 10 uM. The following applies: COS-7. In kind it is cell-based.

Data set [7] relates to Cardiac muscle cell. Put plainly: Inhibition of high-glucose-stimulated ROS production in rat cardiomyocyte at 25 uM. In kind it is functional.
Data set [8] concerns Cardiac muscle cell. Put plainly: Inhibition of high-glucose-stimulated hypertrophy in rat cardiomyocyte at 25 uM. In kind it is functional.
Another data set has as its system Fibroblast. Put plainly: Inhibition of PMA-induced ROS production in human fibroblast at 10 uM. In kind it is functional, cell-based.
The target of data set [9] is T3, NADPH oxidase 2 (Homo sapiens). Nature of the data set: Inhibition of human Nox2 expressed in COS7 cells co-transfected with human p22-phox,p47phox and p67-phox assessed as inhibition of LiDS-induced superoxide generation at 6.3 uM preincubated for 15 mins followed by addition of LiDS and NADPH. In kind it is cell-based. The following applies: COS-7.
The target in data set [10] is T5, NADPH oxidase 2 (Homo sapiens, UniProt P04839).
T5 sequence (P04839 whole entry): T3 sequence (whole entry)
Put plainly: Inhibition of human Nox2 expressed in COS7 cells co-transfected with human p22-phox,p47phox and p67-phox assessed as inhibition of PMA-induced superoxide generation by L-012 chemiluminescence analysis. Type of data set: cell-based. The following applies: cos-7.

The target in data set [11] is T5, NADPH oxidase 2. Put plainly: Inhibition of human Nox2 expressed in COS7 cells co-transfected with human p22-phox,p47phox and p67-phox assessed as inhibition of PMA-induced H2O2 production by amplex red dye based fluorescence assay. In kind it is cell-based. As to conditions: cos-7.

Xanthine dehydrogenase/oxidase, sequence (P80457 whole entry): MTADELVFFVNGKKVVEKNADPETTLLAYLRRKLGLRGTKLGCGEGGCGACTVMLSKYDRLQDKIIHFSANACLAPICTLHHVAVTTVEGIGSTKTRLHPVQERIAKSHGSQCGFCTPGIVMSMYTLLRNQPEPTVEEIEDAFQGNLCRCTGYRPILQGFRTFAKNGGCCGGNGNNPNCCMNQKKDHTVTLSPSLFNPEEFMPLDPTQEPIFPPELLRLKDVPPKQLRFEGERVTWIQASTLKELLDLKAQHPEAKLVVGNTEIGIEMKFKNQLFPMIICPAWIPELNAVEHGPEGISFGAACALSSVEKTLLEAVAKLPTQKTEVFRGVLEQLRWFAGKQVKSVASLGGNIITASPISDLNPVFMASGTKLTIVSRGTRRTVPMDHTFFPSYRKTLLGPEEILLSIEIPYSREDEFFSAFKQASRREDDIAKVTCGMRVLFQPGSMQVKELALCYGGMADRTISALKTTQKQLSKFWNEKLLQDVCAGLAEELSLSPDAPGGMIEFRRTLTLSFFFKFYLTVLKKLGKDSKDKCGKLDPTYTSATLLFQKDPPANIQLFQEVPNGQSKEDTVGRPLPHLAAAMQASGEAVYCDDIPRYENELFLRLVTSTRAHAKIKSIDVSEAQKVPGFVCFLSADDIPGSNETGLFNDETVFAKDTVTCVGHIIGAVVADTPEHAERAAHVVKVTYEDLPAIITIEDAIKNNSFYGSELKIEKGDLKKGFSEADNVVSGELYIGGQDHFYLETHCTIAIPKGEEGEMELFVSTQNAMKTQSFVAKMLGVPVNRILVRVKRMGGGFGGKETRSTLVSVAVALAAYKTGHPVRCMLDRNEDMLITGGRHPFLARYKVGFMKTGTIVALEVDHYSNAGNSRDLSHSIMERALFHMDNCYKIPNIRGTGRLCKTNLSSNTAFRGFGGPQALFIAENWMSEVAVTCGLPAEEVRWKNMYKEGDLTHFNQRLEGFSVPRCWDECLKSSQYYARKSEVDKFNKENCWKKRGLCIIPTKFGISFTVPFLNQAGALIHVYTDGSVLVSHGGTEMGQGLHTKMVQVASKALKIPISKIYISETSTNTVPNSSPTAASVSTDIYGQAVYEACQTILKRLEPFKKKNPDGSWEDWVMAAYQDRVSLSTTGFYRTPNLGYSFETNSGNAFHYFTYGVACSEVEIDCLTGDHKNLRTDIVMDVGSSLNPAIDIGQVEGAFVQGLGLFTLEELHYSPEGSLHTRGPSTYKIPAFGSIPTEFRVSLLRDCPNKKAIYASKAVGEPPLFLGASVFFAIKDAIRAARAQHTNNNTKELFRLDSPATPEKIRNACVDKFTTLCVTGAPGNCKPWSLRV

As for `CC(C)CC1NC2CC(C)(C)C1c1c(Br)cccc12` (racemic), the “inhibition (INH)” value in [1] was “Not Active”. In addition, the Activity result in data set [2] is “Toxic”.

As for `C=C(C)CC1C2c3c(-c4ccc(Cl)c(Cl)c4)cccc3C(CC2(C)C)N1CCCCC` (racemic), the “inhibition (INH)” value in data set [1] is given as “Not Active”.

Consider `C=C(C)CC1C2c3c(Br)cccc3C(CC2(C)C)N1Cc1ccc2c(c1)OCO2` (racemic), for which the “inhibition (INH)” value in data set [1] is “Not Active”.

On to `C=C(C)CC1C2c3c(Br)cccc3C(CC2(C)C)N1Cc1c[nH]c2ccccc12` (racemic), for which the IC50 result on NADPH oxidase 4 was “Not Active”. In addition, the “inhibition (INH)” value in [1] was “Not Active”.

Turning to `C=C(C)CC1C2c3c(Br)cccc3C(CC2(C)C)N1S(C)(=O)=O` (racemic), the “inhibition (INH)” value in data set [1] is recorded as “Not Active”. Besides, the IC50 result on NADPH oxidase 1 is on record as “Not Active”.

For the compound `C=C(C)CC1NC2CC(C)(C)C1c1ccccc12` (racemic), at NADPH oxidase 4, the IC50 result is recorded as “Not Active”. Further, the “inhibition (INH)” value in data set [1] is given as “Not Active”.

In the case of `C=C(C)CC1C2c3c(Br)cccc3C(CC2(C)C)N1Cc1cccc(F)c1` (racemic), the “inhibition (INH)” value in data set [1] is “Not Active”.

With `C=C(C)CC1C2c3c(Br)cccc3C(CC2(C)C)N1Cc1cc(C)on1` (racemic), the “inhibition (INH)” value in data set [1] is recorded as “Not Active”.

As to `C=C(C)CC1C2c3c(Br)cccc3C(CC2(C)C)N1CCCCC` (racemic), in [1], the “inhibition (INH)” value is “Not Active”. Also, the inhibition result (with HPAEC [3]; in data set [5]; in data set [6]; in the data set with Cardiac muscle cell [7]; in the data set on Cardiac muscle cell [8]; in the data set with Fibroblast) was “Active” each time. In addition, in the data set with HPAEC [4], the inhibition entry is “inactive”.

Consider `C=C(C)CC1NC2CC(C)(C)C1c1c(-c3ccc(Cl)c(Cl)c3)cccc12` (racemic), for which the “inhibition (INH)” value in data set [1] is given as “Not Active”.

With `C=C(C)CC1C2c3c(-c4ccc(Cl)c(Cl)c4)cccc3C(CC2(C)C)N1Cc1ccc2c(c1)OCO2` (racemic), the IC50 result on NADPH oxidase 4 is “Not Active”. In addition, in data set [1], the “inhibition (INH)” value is “Not Active”.

`C=C(C)CC1NC2CC(C)(C)C1c1c(Br)cccc12` (racemic): the inhibition result in data set [9] was “Active”. For the same compound, the “inhibition (INH)” value in data set [1] is given as “Not Active”. Also, the Activity entry in [2] is listed as “Toxic”.

On to `C=C(C)CC1C2c3ccccc3C(CC2(C)C)N1Cc1cccc(F)c1` (racemic), for which the “inhibition (INH)” value in data set [1] was “Not Active”.

Regarding `C=C(C)C[C@@H]1N[C@H]2CC(C)(C)[C@@H]1c1c(Br)ccc(Br)c12`, the IC50 entry on NADPH oxidase 4 was “Not Active”. Further, the “inhibition (INH)” value in data set [1] is “Not Active”. In addition, the Activity result in data set [2] is listed as “Toxic”.

Take `C=C(C)C[C@@H]1N[C@H]2CC(C)(C)[C@@H]1c1c(-c3cccnc3)cccc12` (racemic): the IC50 result on NADPH oxidase 2 [10] and on NADPH oxidase 2 [11] was “Not Active” in each case.

`C=C(C)CC1C2c3c(Br)cccc3C(CC2(C)C)N1Cc1ccnc2ccccc12` (racemic): the IC50 result on NADPH oxidase 4 was “Not Active”. Moreover, the “inhibition (INH)” value in data set [1] is “Not Active”.

Consider `C=C(C)CC1C2c3c(Br)cccc3C(CC2(C)C)N1S(=O)(=O)c1ccc(F)cc1` (racemic), for which the IC50 entry on NADPH oxidase 4 is recorded as “Not Active”. Moreover, the “inhibition (INH)” value in data set [1] is reported as “Not Active”.
